{"source": "paper PMC3927586", "about": "“Protein kinase C-delta inactivation inhibits the proliferation and survival of cancer stem cells in culture and in vivo” (BMC Cancer, 2014)", "key": {"recombinant PKCδ": {"biological_target": "T1, recombinant PKCδ (Homo sapiens, UniProt Q05655)", "T1 construct": "purchased Invitrogen", "T1 sequence (Q05655 whole entry)": "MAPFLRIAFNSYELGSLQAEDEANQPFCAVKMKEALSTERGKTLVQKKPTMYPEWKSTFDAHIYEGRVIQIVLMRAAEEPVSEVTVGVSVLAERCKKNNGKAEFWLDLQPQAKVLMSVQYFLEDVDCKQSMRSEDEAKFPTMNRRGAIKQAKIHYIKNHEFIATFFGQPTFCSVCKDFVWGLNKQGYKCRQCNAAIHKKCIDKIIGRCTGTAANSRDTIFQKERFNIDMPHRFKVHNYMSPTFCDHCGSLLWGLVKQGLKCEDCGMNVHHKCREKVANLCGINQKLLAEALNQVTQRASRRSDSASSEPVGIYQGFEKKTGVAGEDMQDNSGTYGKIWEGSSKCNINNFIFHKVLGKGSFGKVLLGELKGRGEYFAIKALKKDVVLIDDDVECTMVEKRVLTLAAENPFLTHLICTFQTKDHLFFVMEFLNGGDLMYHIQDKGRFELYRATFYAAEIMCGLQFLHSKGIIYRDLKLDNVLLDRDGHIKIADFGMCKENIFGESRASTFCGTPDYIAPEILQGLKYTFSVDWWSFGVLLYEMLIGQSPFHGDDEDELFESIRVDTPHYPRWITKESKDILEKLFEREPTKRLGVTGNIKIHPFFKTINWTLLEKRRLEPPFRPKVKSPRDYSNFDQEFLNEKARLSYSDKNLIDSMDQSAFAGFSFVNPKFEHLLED", "assay": "PKC kinase activity assay (Z-lyte), PKCδ", "format": "biochemical", "conditions": "in vitro kinase assay; read-out: PKCδ IC50", "procedure": "(§1) Assays were carried out using recombinant PKCδ or PKCα, (Invitrogen) and the Z-lyte Kinase Assays (Invitrogen) with a “PKC-kinase-specific” peptide substrate. FRET interactions produce a change in fluorescence (ex455/ex520) upon phosphorylation. The kit was used according to the manufacturer’s instructions."}, "recombinant PKCα": {"biological_target": "T2, recombinant PKCα (Homo sapiens, UniProt P17252)", "T2 construct": "purchased Invitrogen", "assay": "PKC kinase activity assay (Z-lyte), PKCα", "format": "biochemical", "conditions": "in vitro kinase assay; read-out: PKCα IC50", "procedure": "as §1"}, "PCSC cells": {"test_system": "PCSC cells", "assay": "Cytotoxicity (LDH release) in pancreatic cancer stem cells", "format": "cell-based, human", "procedure": "(§2) LDH release was assessed by spectrophotometrically measuring the oxidation of NADH in both the cells and media. Cells were seeded in 24-well plates, and exposed to PKCδ inhibitors or vehicle. After different times of exposure, cytotoxicity was quantified by a standard measurement of LDH release with the use of the LDH assay kit (Roche Molecular Biochemicals) according to the manufacturer’s protocol. Briefly, total culture medium was cleared by centrifugation. For assay of released LDH, supernatants were collected. To assess total LDH in cells, Triton X-100 was added to vehicle (control) wells to release intracellular LDH. LDH assay reagent was added to lysates or supernatants and incubated for up to 30 min at room temperature in dark, the reaction was stopped, and the absorbance was measured at 490 nm. The percentage of LDH release was then calculated as the LDH in the supernatants as a fraction of the total LDH.\nFigure 2 Effects of PKCδ inhibitors on human cancer stem cells. (A) PCSC and PrCSC cells at 80% confluence were exposed to rottlerin. DMSO served as vehicle control (Vehicle). After 24 and 72 hr of exposure, cell mass was evaluated by MTT assay. Control values were normalized to 100%. p values for comparison between treatments reached significance at 24 hr of exposure (p≤0.01) for both cell types, and remained significant at 72 hr. (B) PCSC and PrCSC cells at 50% confluence were exposed to rottlerin. Cytotoxicity was evaluated by LDH-release assay. Total maximal LDH release was assigned the arbitrary value of 100% (Control). p values for comparison between effects of treatments on LDH release reached significance at 24 hr of exposure (p<0.01) for both cell types, and remained significant at 72 hr. (C) Effects of PKCδ inhibitor on tumor cell clonogenic capacity. PCSC were exposed to vehicle or rottlerin (10 μM) for 6, 18, 24, or 48 hr. Viable cells were enumerated and re-plated in media without inhibitor, and colony numbers were quantitated 15 days later. p values for comparison of treatment effects on clonogenic capacity reached significance (p=0.005) at 18 hr of exposure and remained significant for all subsequent exposure times. The insert is a photograph of stained colonies on plates. (D) Structures of staurosporine, rottlerin, second-generation (KAM1) and third-generation (BJE6-106) derivatives. (E) PCSC and PrCSC cells at 50% confluence were exposed to KAM1 at the indicated concentrations. DMSO served as vehicle control (Vehicle). Cytotoxicity was evaluated by LDH-release assay, as in panel B. p values for comparison between treatment effects on LDH release reached significance at 24 hr of exposure to 2.5 μM KAM1 for PCSC cells and at 10 μM for PrCSC (p≤0.01), and remained significant at 72 hr for all concentrations of KAM1. Error bars represent SEM."}, "PrCSC cells": {"test_system": "PrCSC cells", "assay": "Cytotoxicity (LDH release) in prostate cancer stem cells", "format": "cell-based, human", "procedure": "as §2\nFigure 2 Effects of PKCδ inhibitors on human cancer stem cells. (A) PCSC and PrCSC cells at 80% confluence were exposed to rottlerin. DMSO served as vehicle control (Vehicle). After 24 and 72 hr of exposure, cell mass was evaluated by MTT assay. Control values were normalized to 100%. p values for comparison between treatments reached significance at 24 hr of exposure (p≤0.01) for both cell types, and remained significant at 72 hr. (B) PCSC and PrCSC cells at 50% confluence were exposed to rottlerin. Cytotoxicity was evaluated by LDH-release assay. […] Viable cells were enumerated and re-plated in media without inhibitor, and colony numbers were quantitated 15 days later. p values for comparison of treatment effects on clonogenic capacity reached significance (p=0.005) at 18 hr of exposure and remained significant for all subsequent exposure times. […] Cytotoxicity was evaluated by LDH-release assay, as in panel B. p values for comparison between treatment effects on LDH release reached significance at 24 hr of exposure to 2.5 μM KAM1 for PCSC cells and at 10 μM for PrCSC (p≤0.01), and remained significant at 72 hr for all concentrations of KAM1. […]"}, "[1]": {"test_system": "non-transformed cell lines", "set-up": "method as in PMID 21990324", "conditions": "cited from earlier work"}}}
{"compound": "CC1(C)C=Cc2cc(CCn3c4ccccc4c4ccccc43)cc(C(=O)/C=C/c3ccccc3)c2O1", "note": "[KAM1]", "values": [{"measurement": "IC50", "setting": "recombinant PKCδ", "result": 2, "unit": "µM"}, {"measurement": "IC50", "setting": "recombinant PKCα", "result": 157, "unit": "µM"}, {"measurement": "lowest concentration inducing cytotoxicity (LDH release) in PCSC", "setting": "PCSC cells", "result": 2.5, "unit": "µM"}, {"measurement": "concentration at which LDH release reached significance in PCSC", "setting": "PCSC cells; 24 hr of exposure, p≤0.01", "result": 2.5, "unit": "µM"}, {"measurement": "lowest concentration inducing cytotoxicity (LDH release) in PrCSC", "setting": "PrCSC cells", "result": 5, "unit": "µM"}, {"measurement": "concentration at which LDH release reached significance in PrCSC", "setting": "PrCSC cells; 24 hr of exposure, p≤0.01", "result": 10, "unit": "µM"}, {"measurement": "cytotoxicity in non-transformed cell lines", "setting": "[1]", "result": "not producing cytotoxicity"}]}
